Laboratory results: US10144715B2, “Piperazine derivatives as liver X receptor modulators” (priority 2014, dated 2018)
Read-outs that look alike come from different tables or passages of the source.

Assays:
LXR α LBD protein = LXR α LBD protein (Homo sapiens (Human), UniProt Q13133); assay: LXR α radioligand binding assay (SPA, competition with [3H]TO901317); conditions: read-out: LXRα Binding Ki
[1] = molecular target: Gal4 DNA binding domain fused to the LBD of LXRα in HEK293 cells (Homo sapiens (Human), UniProt Q13133); assay: LXR luciferase transcriptional reporter gene assay, agonist mode, LXRα; format: cell-based; conditions: for EC50: read-out: Cell LXRα EC50
LXR β LBD protein = LXR β LBD protein (Homo sapiens (Human), UniProt P55055); assay: biochemical; format: binding
[2] = molecular target: Gal4 DNA binding domain fused to the LBD of LXRβ in HEK293 cells (Homo sapiens (Human), UniProt P55055); assay: cell-based
[3] = agonist mode, read-out: Cell LXRβ EC50
[4] = Biological Test Example 2, agonist mode
[5] = Biological Test Example 1, read-out: LXRβ Binding Ki
[6] = Biological Test Example 2, agonist mode, read-out: Cell LXRβ EC50

Sequence of LXR β LBD protein (P55055 222-460 limits assumed): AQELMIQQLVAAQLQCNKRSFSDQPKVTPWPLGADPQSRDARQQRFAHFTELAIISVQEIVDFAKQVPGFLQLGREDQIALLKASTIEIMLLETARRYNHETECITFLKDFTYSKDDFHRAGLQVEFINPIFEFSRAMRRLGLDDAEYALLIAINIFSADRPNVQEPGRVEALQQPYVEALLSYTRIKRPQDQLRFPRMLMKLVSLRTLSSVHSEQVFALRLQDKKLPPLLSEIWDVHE
Sequence of Gal4 DNA binding domain fused to the LBD of LXRβ in HEK293 cells (P55055 222-460 limits assumed): as above
Sequence of LXR α LBD protein (Q13133 209-447): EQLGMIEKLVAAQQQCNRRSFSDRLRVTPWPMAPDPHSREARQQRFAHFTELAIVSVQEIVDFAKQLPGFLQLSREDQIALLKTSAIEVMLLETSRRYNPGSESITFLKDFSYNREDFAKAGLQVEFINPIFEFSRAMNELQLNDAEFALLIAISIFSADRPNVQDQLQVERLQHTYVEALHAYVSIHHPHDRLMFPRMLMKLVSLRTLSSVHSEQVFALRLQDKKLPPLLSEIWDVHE
Sequence of Gal4 DNA binding domain fused to the LBD of LXRα in HEK293 cells (Q13133 209-447): as above

SMILES | Ki (LXR α LBD protein) | Cell LXRα efficacy [1] | EC50 ([1]; agonist mode) | Ki (LXR β LBD protein) | EC50 [2] | Cell LXRβ efficacy ([2]; agonist mode) | EC50 [1] | Ki (LXR β LBD protein; read-out: LXRβ Binding Ki) | EC50 [2, 3] | Cell LXRβ efficacy [2] | EC50 [1, 4] | Ki (LXR β LBD protein; [5]) | Cell LXRβ efficacy [2, 4] | EC50 [2, 6]
CO[C@@H](C)[C@@H]1CN(c2ccc(CO)c(S(C)(=O)=O)c2)CCN1c1ncc(CO)c(C(F)(F)F)n1 (single isomer, unassigned) [11-4] | 1890 nM | 3106 (30) % | 3110 nM | 159 nM | 347 nM | 347 (24) % | – | – | – | – | – | – | – | –
CO[C@H](C)[C@@H]1CN(c2ccc(CO)c(S(C)(=O)=O)c2)CCN1c1ncc(CO)c(C(F)(F)F)n1 (single isomer, unassigned) [11-5] | > 3330 nM | 4667 (21) % | 4670 nM | 414 nM | 363 nM | 363 (16) % | – | – | – | – | – | – | – | –
CC(C)[C@@H]1CN(c2ccc(C#N)c(S(C)(=O)=O)c2)CCN1c1ncc([C@@H](C)O)c(C(F)(F)F)n1 (single isomer, unassigned) [12-4] | 1450 nM | 4457 (58) % | – | – | 652 nM | 652 (50) % | 4460 nM | 111 nM | – | – | – | – | – | –
CC(C)[C@@H]1CN(c2ccc(C#N)c(S(C)(=O)=O)c2)CCN1c1ncc([C@H](C)O)c(C(F)(F)F)n1 (single isomer, unassigned) [12-5] | 1180 nM | 1481 (22) % | – | – | 521 nM | 521 (40) % | 1480 nM | 80 nM | – | – | – | – | – | –
CC[C@H](O)c1cnc(N2CCN(c3ccc(F)c(S(C)(=O)=O)c3)C[C@H]2C(C)C)nc1C(F)(F)F (single isomer, unassigned) [12-6] | 266 nM | 2429 (43) % | 2430 nM | – | 289 nM | 289 (29) % | – | 22 nM | – | – | – | – | – | –
C[C@](O)(c1ccc(CN2CCN(c3cccc(S(C)(=O)=O)c3)C[C@@H]2c2ccccc2)cc1)C(F)(F)F (single isomer, unassigned) [46-28] | 3650 nM | 4974 (24) % | – | 501 nM | 1890 nM | 1885 (16) % | 4970 nM | – | – | – | – | – | – | –
C[C@@](O)(c1ccc(CN2CCN(c3cccc(S(C)(=O)=O)c3)C[C@H]2c2ccccc2)cc1)C(F)(F)F (single isomer, unassigned) [46-30] | 1670 nM | 1787 (28) % | – | 216 nM | 532 nM | 532 (12) % | 1790 nM | – | – | – | – | – | – | –
CS(=O)(=O)c1cccc(N2CCN(C[C@H]3CC[C@@](C)(O)CC3)[C@H](c3ccccc3)C2)c1 (single isomer, unassigned) [48-6] | 30900 nM | – | – | – | – | – | > 20000 nM | > 2500 nM | > 20000 nM | – | – | – | – | –
NS(=O)(=O)c1cccc(N2CCN(C[C@H]3CC[C@H](C(F)F)CC3)[C@H](c3ccccc3)C2)c1 (single isomer, unassigned) [48-20] | 4670 nM | – | – | – | – | 6% | > 20000 nM | 1550 nM | 2270 nM | – | – | – | – | –
NS(=O)(=O)c1cccc(N2CCN(C[C@H]3CC[C@H](C(F)F)CC3)[C@@H](c3ccccc3)C2)c1 (single isomer, unassigned) [48-21] | 517 nM | 2703 (20) % | – | – | – | 10% | 2700 nM | 175 nM | 933 nM | – | – | – | – | –
NS(=O)(=O)c1cccc(N2CCN(C[C@H]3CC[C@@H](C(F)F)CC3)[C@H](c3ccccc3)C2)c1 (single isomer, unassigned) [48-22] | 1500 nM | 9061 (8) % | – | – | – | 8% | 9060 nM | 918 nM | 1190 nM | – | – | – | – | –
C[C@@H](c1ccc(C(F)(F)F)cc1)N1CCN(c2cccc(S(C)(=O)=O)c2)C[C@@H]1c1ccccc1 [46-16, (S)-4-(3-(methylsulfonyl)phenyl)-2-phenyl-1-((S)-1-(4-(trifluoromethyl)phenyl)ethyl)piperazine] | – | – | – | 503 nM | > 20000 nM | – | > 20000 nM | – | – | – | – | – | – | –
COC(=O)c1cc(CN2CCN(c3cccc(S(C)(=O)=O)c3)CC2c2ccccc2)ccc1C(F)(F)F (centres unmarked) [46-36, methyl 5-((4-(3-(methylsulfonyl)phenyl)-2-phenylpiperazin-1-yl)methyl)-2-(trifluoromethyl)benzoate] | – | 11251 (20) % | 11300 nM | – | 4760 nM | 4759 (14) % | – | 244 nM | – | – | – | – | – | –
CS(=O)(=O)c1cccc(N2CCN(Cc3ccc(C(F)(F)F)c(Br)c3)C(c3ccccc3)C2)c1 (centres unmarked) [46-37, 1-(3-bromo-4-(trifluoromethyl)benzyl)-4-(3-(methylsulfonyl)phenyl)-2-phenylpiperazine] | – | 3451 (52) % | 3450 nM | – | 1190 nM | 1194 (55) % | – | 30 nM | – | – | – | – | – | –
CS(=O)(=O)c1cccc(N2CCN(CC3CCN(CC(F)(F)F)CC3)[C@H](c3ccccc3Cl)C2)c1 [48-56, (R)-2-(2-chlorophenyl)-4-(3-(methylsulfonyl)phenyl)-1-((1-(2,2,2-trifluoroethyl)piperidin-4-yl)methyl)piperazine] | – | – | – | – | 4010 nM | – | > 20000 nM | 1670 nM | – | 4014 (16) % | – | – | – | –
CS(=O)(=O)c1cccc(N2CCN(CC3(F)CCN(CC(F)(F)F)CC3)[C@@H](c3ccc(F)cc3)C2)c1 [48-57, (S)-1-((4-fluoro-1-(2,2,2-trifluoroethyl)piperidin-4-yl)methyl)-2-(4-fluorophenyl)-4-(3-(methylsulfonyl)phenyl)piperazine] | – | 4500 (37) % | – | – | 1270 nM | – | – | – | – | – | 4500 nM | 492 nM | 1272 (13) % | –
CS(=O)(=O)c1cccc(N2CCN(C[C@H]3CC[C@]4(CC3)CC4(F)F)[C@H](c3ccccc3)C2)c1 [48-72, (R)-1-(((3R,6r)-1,1-difluorospiro[2.5]octan-6-yl)methyl)-4-(3-(methylsulfonyl)phenyl)-2-phenylpiperazine] | – | 7222 (11) % | – | – | – | – | 7220 nM | – | – | – | – | 825 nM | 31% | 2880 nM
CS(=O)(=O)c1cccc(N2CCN(C[C@@H]3C[C@H]4CC[C@@H](C3)N4CC(F)(F)F)[C@H](c3ccccc3)C2)c1 [48-75, (1R,3s,5S)-3-(((R)-4-(3-(methylsulfonyl)phenyl)-2-phenylpiperazin-1-yl)methyl)-8-(2,2,2-trifluoroethyl)-8-azabicyclo[3.2.1]octane] | – | – | – | – | – | – | > 20000 nM | – | – | – | – | 940 nM | 21% | 2400 nM
CS(=O)(=O)c1cccc(N2CCN(C[C@@H]3C[C@H]4CC[C@@H](C3)N4CC(F)(F)F)[C@@H](c3ccccc3)C2)c1 [48-76, (1R,3s,5S)-3-(((S)-4-(3-(methylsulfonyl)phenyl)-2-phenylpiperazin-1-yl)methyl)-8-(2,2,2-trifluoroethyl)-8-azabicyclo[3.2.1]octane] | – | 1394 (54) % | – | – | – | – | 1390 nM | – | – | – | – | 67 nM | 27% | 374 nM
Cc1nc(N2CCN(c3ccc(F)c(S(C)(=O)=O)c3)C[C@H]2C(C)C)ncc1C(F)(F)F [Cpd No 37-1, (R)-2-(4-(4-fluoro-3-(methylsulfonyl)phenyl)-2-isopropylpiperazin-1-yl)-4-methyl-5-(trifluoromethyl)pyrimidine] | – | 262 (91) % | – | – | 41 nM | – | 262 nM | 3 nM | – | 41 (81) % | – | – | – | –
